Legend:
Format in all cases: biochemical
[1] = system: abnormally expanded PolyQ protein; test: in vitro screening assay of abnormally expanded PolyQ protein aggregation by the turbidity method; conditions: screening of PolyQ aggregation inhibiting compounds
Description: The present inventors established an in vitro screening assay system capable of conveniently evaluating the aggregation of abnormally expanded PolyQ protein by the turbidity method (U.S. Pat. No. 6,632,616).

Thio-Q62 protein [2] = test: protein aggregation turbidity assay; conditions: 10 μM thio-Q62, PBS, 37° C.; arginine 100, 200 or 400 mM; proline 400 mM; Thio-Q62 alone = 100%
Method: In the subsequent experiments, the protein aggregation turbidity assay was performed by the method described in Non-Patent Document 6. Specifically, it was performed as follows.
(§1) A solution in which abnormally expanded proteins were dissolved in physiological saline phosphate (PBS) was used as a measurement sample. The solution was incubated at 37° C., and turbidity at 405 nm was measured every 24 hours using a microplate reader “Spectramax Plus plate reader” (Molecular Devices Inc.).
As an abnormally expanded PolyQ protein, a Thioredoxin-Q62 (Thio-Q62) fusion protein consisting of Thioredoxin and a PolyQ stretch with 62 glutamines was used.
As a control, Thio-Q62 protein alone was incubated in the same manner, and the turbidity was measured every 24 hours.
As controls, a solution containing Thio-Q62 protein alone, and a solution containing Thio-Q62 protein and 400 mM proline were incubated in the same manner, respectively, and turbidity was measured after 5 days. […] The relative turbidity (%) of each solution was measured. The turbidity of the solution containing Thio-Q62 protein alone was set to 100%. In the figure, values represent means±SEM (n=3). “*” represents p<0.05, “***” represents p<0.001, “n.s.” represents not significant.

Thio-Q62 protein [3] = test: seed-induced polyQ aggregation reaction (turbidity); conditions: 10 μM Thio-Q62 + seeds, 400 mM arginine or proline, 37° C., 7 days
Method: as §1

O=C(O)[C@@H]1CCCN1 [proline, reference compound]
PolyQ aggregation inhibitory activity [1]: no PolyQ aggregation-inhibitory effect | relative turbidity after 5 days (Thio-Q62 protein [2]): did not exert any anti-aggregation effect | seed-induced increase in turbidity (Thio-Q62 protein [3]): the effects as observed with arginine was not obtained
